Laboratory results reported in patent publication US20110081315A1, “NOVEL MACROCYCLIC INHIBITORS OF HEPATITIS C VIRUS REPLICATION” (INTERMUNE, INC., priority 2009, published 2011).

Assays:
[1] = target: NS3/NS4 complexes (Hepatitis C virus genotype 1a, UniProt P27958); assay: NS3/NS4 inhibition assay (IC50); assay type: biochemical; conditions: NS3/NS4 activity; 23° C., 25 μM NS4A peptide
Outline: (§1)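 NS3/NS4 protease complexes were formed and compound inhibitory concentrations (IC50) measured at ambient temperature (23° C.) in 50 mM Tris-HCl, pH 7.5, with 15% glycerol, 0.6 mM LDAO, 25 μM NS4A peptide and 10 mM DTT. Replicon EC50 values come from a standard HCV replicon cell assay.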

[2] = tested on: hepatitis C replicon; assay: hepatitis C replicon EC50 assay; assay type: cell-based; conditions: Hepatitis C virus; hepatitis C replicon; read-out: EC50
Outline: as §1

Sequence of NS3/NS4 complexes (P27958 1027-1657, one chain of several): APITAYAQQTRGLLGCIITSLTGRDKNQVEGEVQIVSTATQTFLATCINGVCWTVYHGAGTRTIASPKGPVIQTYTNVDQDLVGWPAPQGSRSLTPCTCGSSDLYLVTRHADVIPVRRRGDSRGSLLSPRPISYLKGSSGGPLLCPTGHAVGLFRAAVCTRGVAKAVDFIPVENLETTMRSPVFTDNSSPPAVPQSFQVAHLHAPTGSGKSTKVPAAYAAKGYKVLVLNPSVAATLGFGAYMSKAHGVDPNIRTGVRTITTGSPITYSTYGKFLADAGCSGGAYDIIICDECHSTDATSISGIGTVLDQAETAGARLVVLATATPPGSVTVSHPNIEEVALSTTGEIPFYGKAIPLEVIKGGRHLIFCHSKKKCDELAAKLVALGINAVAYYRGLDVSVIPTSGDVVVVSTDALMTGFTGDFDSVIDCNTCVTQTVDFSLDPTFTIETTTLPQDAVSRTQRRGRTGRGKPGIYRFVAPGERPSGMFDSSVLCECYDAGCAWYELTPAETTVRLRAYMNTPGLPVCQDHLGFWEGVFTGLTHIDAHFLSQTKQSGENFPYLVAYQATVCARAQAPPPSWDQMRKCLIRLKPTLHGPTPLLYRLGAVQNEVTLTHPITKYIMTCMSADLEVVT

| Compound | IC50 [1] [nM] | EC50 [2] [nM] |
| --- | --- | --- |
| CC(C)n1c(O[C@@H]2C[C@H]3C(=O)N[C@]4(C(=O)NS(=O)(=O)N(C)C)C[C@H]4/C=C\CCCCC[C@H](NC(=O)OC(C)(C)C)C(=O)N3C2)nc2c(-c3csc(N4CCCCC4)n3)cccc21 [Compound 1742] | < 10 | 10 to 100 |
| CC(C)n1c(O[C@@H]2C[C@H]3C(=O)N[C@]4(C(=O)NS(=O)(=O)N(C)C)C[C@H]4/C=C\CCCCC[C@H](NC(=O)OC(C)(C)C)C(=O)N3C2)nc2c(-c3csc(C(C)(C)C)n3)cccc21 [Compound 1743] | < 10 | 10 to 100 |
| CC(C)n1c(O[C@@H]2C[C@H]3C(=O)N[C@]4(C(=O)NS(=O)(=O)N(C)C)C[C@H]4/C=C\CCCCC[C@H](NC(=O)OC(C)(C)C)C(=O)N3C2)nc2c(-c3cnc(N4CCOCC4)cn3)cccc21 [Compound 1744] | < 10 | < 10 |
| CC(C)n1c(O[C@@H]2C[C@H]3C(=O)N[C@]4(C(=O)NS(=O)(=O)N5CCC5)C[C@H]4/C=C\CCCCC[C@H](NC(=O)OC(C)(C)C)C(=O)N3C2)nc2c(-c3nc(C4CCCC4)cs3)cccc21 [Compound 1745] | < 10 | 10 to 100 |
| Cc1ccc(-c2csc(-c3cccc4c3nc(O[C@@H]3C[C@H]5C(=O)N[C@]6(C(=O)NS(=O)(=O)N(C)C)C[C@H]6/C=C\CCCCC[C@H](NC(=O)OC(C)(C)C)C(=O)N5C3)n4C(C)C)n2)cc1 [Compound 1746] | < 10 | 10 to 100 |
| CC(C)n1c(O[C@@H]2C[C@H]3C(=O)N[C@]4(C(=O)NS(=O)(=O)N(C)C)C[C@H]4/C=C\CCCCC[C@H](NC(=O)OC(C)(C)C)C(=O)N3C2)nc2c(-c3nc(-c4ccccc4F)cs3)cccc21 [Compound 1747] | < 10 | 10 to 100 |
| Cc1ccccc1-c1csc(-c2cccc3c2nc(O[C@@H]2C[C@H]4C(=O)N[C@]5(C(=O)NS(=O)(=O)N(C)C)C[C@H]5/C=C\CCCCC[C@H](NC(=O)OC(C)(C)C)C(=O)N4C2)n3C(C)C)n1 [Compound 1748] | < 10 | 10 to 100 |
| CC(C)n1c(O[C@@H]2C[C@H]3C(=O)N[C@]4(C(=O)NS(=O)(=O)N(C)C)C[C@H]4/C=C\CCCCC[C@H](NC(=O)OC(C)(C)C)C(=O)N3C2)nc2c(-c3nc(-c4ccccc4Cl)cs3)cccc21 [Compound 1749] | < 10 | 10 to 100 |
| Cc1cccc(-c2csc(-c3cccc4c3nc(O[C@@H]3C[C@H]5C(=O)N[C@]6(C(=O)NS(=O)(=O)N(C)C)C[C@H]6/C=C\CCCCC[C@H](NC(=O)OC(C)(C)C)C(=O)N5C3)n4C(C)C)n2)c1 [Compound 1750] | < 10 | 10 to 100 |
| CC(C)n1c(O[C@@H]2C[C@H]3C(=O)N[C@]4(C(=O)NS(=O)(=O)N(C)C)C[C@H]4/C=C\CCCCC[C@H](NC(=O)OC(C)(C)C)C(=O)N3C2)nc2c(-c3nc(-c4ccc(Cl)cc4)cs3)cccc21 [Compound 1751] | < 10 | 10 to 100 |
| COc1ccc(-c2csc(-c3cccc4c3nc(O[C@@H]3C[C@H]5C(=O)N[C@]6(C(=O)NS(=O)(=O)N(C)C)C[C@H]6/C=C\CCCCC[C@H](NC(=O)OC(C)(C)C)C(=O)N5C3)n4C(C)C)n2)cc1 [Compound 1752] | < 10 | 10 to 100 |
| CC(C)n1c(O[C@@H]2C[C@H]3C(=O)N[C@]4(C(=O)NS(=O)(=O)N(C)C)C[C@H]4/C=C\CCCCC[C@H](NC(=O)OC(C)(C)C)C(=O)N3C2)nc2c(-c3nc(-c4ccc(-c5ccccc5)cc4)cs3)cccc21 [Compound 1753] | < 10 | 10 to 100 |
| Cc1ccc(-c2csc(-c3cccc4c3nc(O[C@@H]3C[C@H]5C(=O)N[C@]6(C(=O)NS(=O)(=O)N(C)C)C[C@H]6/C=C\CCCCC[C@H](NC(=O)OC(C)(C)C)C(=O)N5C3)n4C(C)C)n2)c(C)c1 [Compound 1754] | < 10 | 10 to 100 |
| CC(C)n1c(O[C@@H]2C[C@H]3C(=O)N[C@]4(C(=O)NS(=O)(=O)N(C)C)C[C@H]4/C=C\CCCCC[C@H](NC(=O)OC(C)(C)C)C(=O)N3C2)nc2c(-c3nc(Cc4ccc(F)c(F)c4)cs3)cccc21 [Compound 1755] | < 10 | 10 to 100 |
| CC(C)n1c(O[C@@H]2C[C@H]3C(=O)N[C@]4(C(=O)NS(=O)(=O)N(C)C)C[C@H]4/C=C\CCCCC[C@H](NC(=O)OC(C)(C)C)C(=O)N3C2)nc2c(-c3nc(Cc4cc(F)cc(F)c4)cs3)cccc21 [Compound 1756] | < 10 | 10 to 100 |
| COc1ccc(Cc2csc(-c3cccc4c3nc(O[C@@H]3C[C@H]5C(=O)N[C@]6(C(=O)NS(=O)(=O)N(C)C)C[C@H]6/C=C\CCCCC[C@H](NC(=O)OC(C)(C)C)C(=O)N5C3)n4C(C)C)n2)cc1OC [Compound 1757] | < 10 | < 10 |
| CC(C)n1c(O[C@@H]2C[C@H]3C(=O)N[C@]4(C(=O)NS(=O)(=O)N(C)C)C[C@H]4/C=C\CCCCC[C@H](NC(=O)OC(C)(C)C)C(=O)N3C2)nc2c(-c3nc(Cc4cccc(F)c4)cs3)cccc21 [Compound 1758] | < 10 | 10 to 100 |
| CC(C)n1c(O[C@@H]2C[C@H]3C(=O)N[C@]4(C(=O)NS(=O)(=O)N(C)C)C[C@H]4/C=C\CCCCC[C@H](NC(=O)OC(C)(C)C)C(=O)N3C2)nc2c(-c3nc(Cc4ccc(F)cc4)cs3)cccc21 [Compound 1759] | < 10 | < 10 |
| CC(C)n1c(O[C@@H]2C[C@H]3C(=O)N[C@]4(C(=O)NS(=O)(=O)N(C)C)C[C@H]4/C=C\CCCCC[C@H](NC(=O)OC(C)(C)C)C(=O)N3C2)nc2c(-c3nc(Cc4ccccc4Cl)cs3)cccc21 [Compound 1760] | < 10 | 10 to 100 |
| CC(C)n1c(O[C@@H]2C[C@H]3C(=O)N[C@]4(C(=O)NS(=O)(=O)N(C)C)C[C@H]4/C=C\CCCCC[C@H](NC(=O)OC(C)(C)C)C(=O)N3C2)nc2c(-c3nc(Cc4cccc(Cl)c4)cs3)cccc21 [Compound 1761] | < 10 | 10 to 100 |
| CC(C)n1c(O[C@@H]2C[C@H]3C(=O)N[C@]4(C(=O)O)C[C@H]4/C=C\CCCCC[C@H](Nc4ccc(F)cc4)C(=O)N3C2)nc2c(-c3nc(C4CCCC4)cs3)cccc21 [Compound 1762] | 10 to 100 | > 100 |
| CC(C)n1c(O[C@@H]2C[C@H]3C(=O)N[C@]4(C(=O)O)C[C@H]4/C=C\CCCCC[C@H](Nc4cccc(F)c4)C(=O)N3C2)nc2c(-c3nc(C4CCCC4)cs3)cccc21 [Compound 1763] | 10 to 100 | > 100 |
| CC(C)n1c(O[C@@H]2C[C@H]3C(=O)N[C@]4(C(=O)NS(=O)(=O)C5(C)CC5)C[C@H]4/C=C\CCCCC[C@H](NC(=O)OC(C)(C)C)C(=O)N3C2)nc2c(-c3nc4c(s3)CCC4)cccc21 [Compound 1765] | < 10 | < 10 |
| CC(C)n1c(O[C@@H]2C[C@H]3C(=O)N[C@]4(C(=O)NS(=O)(=O)N(C)C)C[C@H]4/C=C\CCCCC[C@H](NC(=O)OC(C)(C)C)C(=O)N3C2)nc2c(-c3nc(C4CCC4)cs3)cccc21 [Compound 1766] | < 10 | < 10 |
| CC(C)n1c(O[C@@H]2C[C@H]3C(=O)N[C@]4(C(=O)NS(=O)(=O)C5(C)CC5)C[C@H]4/C=C\CCCCC[C@H](NC(=O)OC(C)(C)C)C(=O)N3C2)nc2c(-c3nc(Cc4ccccc4)cs3)cccc21 [Compound 1767] | < 10 | < 10 |
| CC(C)n1c(O[C@@H]2C[C@H]3C(=O)N[C@]4(C(=O)NS(=O)(=O)N(C)C)C[C@H]4/C=C\CCCCC[C@H](NC(=O)OC(C)(C)C)C(=O)N3C2)nc2c(-c3nc(Cc4ccccc4)cs3)cccc21 [Compound 1768] | < 10 | < 10 |
